Measurements taken from patent US9963464B2, “Macrocyclic compounds” (Bayer Pharma Aktiengesellschaft, priority 2014, dated 2018).

Legend:
MOLM-13 cells = assay: Proliferation assay MOLM-13; type: cell-based; conditions: Homo sapiens, 72-hour exposure, Cell Titre-Glo, read-out: Inhibition of MOLM-13 cell proliferation IC50
Description: (§1) Cultivated tumour cells (HeLa, human cervical tumour cells, ATCC CCL-2; NCI-H460, human non-small cell lung carcinoma cells, ATCC HTB-177; A2780, human ovarian carcinoma cells, ECACC #93112519; DU 145, hormone-independent human prostate carcinoma cells, ATCC HTB-81; HeLa-MaTu-ADR, multidrug-resistant human cervical carcinoma cells, EPO-GmbH Berlin; Caco-2, human colorectal carcinoma cells, ATCC HTB-37; B16F10, mouse melanoma cells, ATCC CRL-6475) were plated at a density of 5,000 cells/well (DU145, HeLa-MaTu-ADR), 3,000 cells/well (NCI-H460, HeLa), 2,500 cells/well (A2780), 1,500 cells/well (Caco-2), or 1,000 cells/well (B16F10) in a 96-well multititer plate in 200 μL of their respective growth medium supplemented 10% fetal calf serum. […] Cell proliferation was determined by staining the cells with crystal violet: the cells were fixed by adding 20 μl/measuring point of an 11% glutaric aldehyde solution for 15 minutes at room temperature. […] The extinction was determined by photometry at a wavelength of 595 nm. The change of cell number, in percent, was calculated by normalization of the measured values to the extinction values of the zero-point plate (=0%) and the extinction of the untreated (0 μm) cells (=100%). […] Cell viability was assessed after 72-hour exposure with the Cell Titre-Glo Luminescent Cell Viability Assay (Promega). […]

rat hepatocytes = assay: In vitro metabolic stability in rat hepatocytes; type: in vitro ADME; conditions: 1 μM
Description: 6. Investigation of In Vitro Metabolic Stability in Rat Hepatocytes
Hepatocytes from Han Wistar rats were isolated via a 2-step perfusion method. After perfusion, the liver was carefully removed from the rat: the liver capsule was opened and the hepatocytes were gently shaken out into a Petri dish with ice-cold Williams medium E (purchased from Sigma Aldrich Life Science, St Louis, Mo.). The resulting cell suspension was filtered through sterile gaze in 50 ml falcon tubes and centrifuged at 50×g for 3 min at room temperature. The cell pellet was resuspended in 30 ml WME and centrifuged through a Percoll® gradient for 2 times at 100×g. The hepatocytes were washed again with Williams' medium E (WME) and resuspended in medium containing 5% Fetal calf serum (FCS, purchased from Invitrogen, Auckland, NZ). Cell viability was determined by trypan blue exclusion.
For the metabolic stability assay liver cells were distributed in WME containing 5% FCS to glass vials at a density of 1.0×10^6 vital cells/ml. The test compound was added to a final concentration of 1 μM. During incubation, the hepatocyte suspensions were continuously shaken and aliquots were taken at 2, 8, 16, 30, 45 and 90 min, to which equal volumes of cold acetonitrile were immediately added. Samples were frozen at −20° C. over night, after subsequently centrifuged for 15 minutes at 3000 rpm and the supernatant was analyzed with an Agilent 1200 HPLC-system with LCMS/MS detection.
The half-life of a test compound was determined from the concentration-time plot. From the half-life the intrinsic clearances were calculated.

[1] = In vivo pharmacokinetics in rats; conditions: male, Wistar, rat, plasma, iv, i.v. bolus dosing, read-out: t1/2: terminal half-life (converted)
Description: 7. In Vivo Pharmacokinetics in Rats
For in vivo pharmacokinetic experiments test compounds were administered to male Wistar rats intravenously at doses of 0.3 to 1 mg/kg formulated as solutions using either rat plasma or solubilizers such as PEG400 in well-tolerated amounts.
For pharmacokinetics after intravenous administration test compounds were given as i.v. bolus and blood samples were taken at 2 min, 8 min, 15 min, 30 min, 45 min, 1 h, 2 h, 4 h, 6 h, 8 h and 24 h after dosing. […] Blood was collected into Lithium-Heparin tubes (Monovetten®, Sarstedt) and centrifuged for 15 min at 3000 rpm. An aliquot of 100 μL from the supernatant (plasma) was taken and precipitated by addition of 400 μL ice cold acetonitrile and frozen at −20 OC over night. Samples were subsequently thawed and centrifuged at 3000 rpm, 4° C. for 20 minutes. Aliquots of the supernatants were taken for analytical testing using an Agilent 1200 HPLC-system with LCMS/MS detection. PK parameters were calculated by non-compartmental analysis using a PK calculation software.
PK parameters derived from concentration-time profiles after i.v.: CLplasma: Total plasma clearance of test compound (in L/kg/h); CLblood: Total blood clearance of test compound: CLplasma*Cp/Cb (in L/kg/h) with Cp/Cb being the ratio of concentrations in plasma and blood, AUCnorm: Area under the concentration-time curve from t=0 h to infinity (extrapolated) divided by the administered dose (in kg*h/L); t1/2: terminal half-life (in h).

A2780 cells = assay: Proliferation assay A2780; type: cell-based; conditions: Homo sapiens, A2780, 96 h; 4 days, crystal violet; read-out: Inhibition of A2780 cell proliferation IC50
Description: as §1

## CS(=N)(=O)Cc1cc2cc(c1)OCCCCOc1cc(F)ccc1-c1nc(ncc1F)N2 (racemic) [Example 1, (rac)-16,20-Difluoro-9-[(S-methylsulfonimidoyl)methyl]-2,3,4,5-tetrahydro-12H-13,17-(azeno)-11,7-(metheno)-1,6,12,14-benzodioxadiazacyclononadecine]
MOLM-13 cells
  IC50: 4 nM
Rat hepatocytes
  maximal calculated oral bioavailability (Fmax) based on stability data in rat hepatocytes: 69%
[1]
  half-life: 2.2 h

## CS(=N)(=O)Cc1cc2nc(c1)OCCCOc1cc(F)ccc1-c1cc(ncc1F)N2 (racemic) [Example 5, (rac)-15,19-Difluoro-8-[(S-methylsulfonimidoyl)methyl]-3,4-dihydro-2H,11H-10,6-(azeno)-12,16-(metheno)-1,5,11,13-benzodioxadiazacyclooctadecine]
MOLM-13 cells
  IC50: 2 nM
Rat hepatocytes
  maximal calculated oral bioavailability (Fmax) based on stability data in rat hepatocytes: 62%
[1]
  half-life: 7.2 h

## CSCc1cc2nc(c1)OCCCCOc1cc(F)ccc1-c1cc(ncc1F)N2 [Example 12, 16,20-Difluoro-9-[(methylsulfanyl)methyl]-2,3,4,5-tetrahydro-12H-11,7-(azeno)-13,17-(metheno)-1,6,12,14-benzodioxadiazacyclononadecine]
A2780 cells
  IC50: 115 nM

## CS(=N)(=O)Cc1cc2cc(c1)OCCCOc1cc(F)ccc1-c1nc(ncc1F)N2 (racemic) [Example 15, (rac)-15,19-difluoro-8-[(S-methylsulfonimidoyl)methyl]-3,4-dihydro-2H,11H-12,16-(azeno)-10,6-(metheno)-1,5,11,13-benzodioxadiazacyclooctadecine]
Rat hepatocytes
  maximal calculated oral bioavailability (Fmax) based on stability data in rat hepatocytes: 76%
[1]
  half-life: 4.9 h
